57 targets from the supplement of paper PMC6411743 can be followed below.

Compound in assay [1]: Nc1ncnc2c1ncn2[C@@H]1O[C@H](COP(=O)(O)OP(=O)(O)OP(=O)(O)O)[C@@H](O)[C@H]1O [adenosine triphosphate]
As to the kind of experiment: pEC50 of ATP-induced change in protein thermal stability (2D-TPP). A digest of the protocol:
(§1)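 Soluble protein was quantified by TMT LC-MS/MS after ultracentrifugation of Jurkat crude lysate that had been dosed at five concentrations including vehicle (10 min, room temperature), heated at 12 temperatures of 42–63.9 °C for 3 min, and incubated with NP40 and benzonase at 4 °C for 60 min. Fold changes against vehicle at each temperature were median-normalised, and pEC50 was derived from per-replicate dose-response fits over adjacent temperature pairs. Hits were called with permutation-based false discovery rate control in three independent experiments.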

Compound in assay [2]: Nc1nc2c(ncn2[C@@H]2O[C@H](COP(=O)(O)OP(=O)(O)OP(=O)(O)O)[C@@H](O)[C@H]2O)c(=O)[nH]1 [guanosine triphosphate]
As to the kind of experiment: pEC50 of GTP-induced change in protein thermal stability (2D-TPP). A digest of the protocol:
as §1
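Throughout, for pEC50 of ATP-induced change in protein thermal stability (2D-TPP): lysate dosed with Na-ATP at 0 0.005 0.05 0.5 and 2 mM.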

Sequence of UniProt P61586 (P61586 whole entry): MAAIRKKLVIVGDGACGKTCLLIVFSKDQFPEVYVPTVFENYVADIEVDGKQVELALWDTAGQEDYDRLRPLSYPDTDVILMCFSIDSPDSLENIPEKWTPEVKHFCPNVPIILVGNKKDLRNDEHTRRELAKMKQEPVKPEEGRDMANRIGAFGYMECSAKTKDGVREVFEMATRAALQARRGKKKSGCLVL
Sequence of UniProt P61026 (P61026 whole entry): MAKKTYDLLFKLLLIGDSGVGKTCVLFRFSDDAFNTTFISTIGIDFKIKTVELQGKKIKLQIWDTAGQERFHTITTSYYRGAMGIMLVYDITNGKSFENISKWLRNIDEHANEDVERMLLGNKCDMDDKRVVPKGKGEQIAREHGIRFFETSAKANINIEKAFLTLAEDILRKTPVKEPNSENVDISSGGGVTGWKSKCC
Sequence of UniProt Q3KQV9 (Q3KQV9 whole entry): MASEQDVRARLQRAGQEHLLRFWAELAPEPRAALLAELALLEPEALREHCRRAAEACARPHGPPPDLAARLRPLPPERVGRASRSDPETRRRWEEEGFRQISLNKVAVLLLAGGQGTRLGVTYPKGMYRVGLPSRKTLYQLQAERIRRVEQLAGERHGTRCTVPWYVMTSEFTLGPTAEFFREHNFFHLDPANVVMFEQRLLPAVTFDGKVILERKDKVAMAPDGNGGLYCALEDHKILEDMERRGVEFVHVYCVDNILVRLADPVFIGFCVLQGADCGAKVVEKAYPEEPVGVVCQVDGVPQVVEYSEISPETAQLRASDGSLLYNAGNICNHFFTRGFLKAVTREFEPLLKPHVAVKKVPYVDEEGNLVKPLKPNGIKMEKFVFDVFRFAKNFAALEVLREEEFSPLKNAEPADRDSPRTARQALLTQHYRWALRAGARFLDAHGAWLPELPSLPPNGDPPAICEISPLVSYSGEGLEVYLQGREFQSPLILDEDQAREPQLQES
Sequence of UniProt P62333 (P62333 whole entry): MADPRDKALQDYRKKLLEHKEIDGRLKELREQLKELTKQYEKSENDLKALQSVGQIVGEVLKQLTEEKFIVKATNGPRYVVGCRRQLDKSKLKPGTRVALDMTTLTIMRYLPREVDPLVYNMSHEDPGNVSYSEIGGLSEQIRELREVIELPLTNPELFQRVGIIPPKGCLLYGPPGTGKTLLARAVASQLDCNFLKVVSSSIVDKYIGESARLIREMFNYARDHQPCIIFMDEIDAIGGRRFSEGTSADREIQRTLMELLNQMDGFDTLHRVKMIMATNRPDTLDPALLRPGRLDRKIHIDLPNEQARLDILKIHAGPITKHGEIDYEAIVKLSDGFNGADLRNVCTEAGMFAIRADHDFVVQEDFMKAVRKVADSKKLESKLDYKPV
Sequence of UniProt P36542 (P36542 whole entry): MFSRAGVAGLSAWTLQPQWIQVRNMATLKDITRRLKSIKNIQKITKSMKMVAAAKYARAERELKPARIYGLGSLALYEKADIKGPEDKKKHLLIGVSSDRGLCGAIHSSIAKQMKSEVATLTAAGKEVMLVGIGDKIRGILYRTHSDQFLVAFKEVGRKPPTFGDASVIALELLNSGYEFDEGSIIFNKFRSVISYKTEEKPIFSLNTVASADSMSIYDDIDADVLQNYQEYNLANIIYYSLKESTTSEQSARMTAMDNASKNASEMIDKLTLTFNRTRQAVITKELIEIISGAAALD
Sequence of UniProt P08240 (P08240 whole entry): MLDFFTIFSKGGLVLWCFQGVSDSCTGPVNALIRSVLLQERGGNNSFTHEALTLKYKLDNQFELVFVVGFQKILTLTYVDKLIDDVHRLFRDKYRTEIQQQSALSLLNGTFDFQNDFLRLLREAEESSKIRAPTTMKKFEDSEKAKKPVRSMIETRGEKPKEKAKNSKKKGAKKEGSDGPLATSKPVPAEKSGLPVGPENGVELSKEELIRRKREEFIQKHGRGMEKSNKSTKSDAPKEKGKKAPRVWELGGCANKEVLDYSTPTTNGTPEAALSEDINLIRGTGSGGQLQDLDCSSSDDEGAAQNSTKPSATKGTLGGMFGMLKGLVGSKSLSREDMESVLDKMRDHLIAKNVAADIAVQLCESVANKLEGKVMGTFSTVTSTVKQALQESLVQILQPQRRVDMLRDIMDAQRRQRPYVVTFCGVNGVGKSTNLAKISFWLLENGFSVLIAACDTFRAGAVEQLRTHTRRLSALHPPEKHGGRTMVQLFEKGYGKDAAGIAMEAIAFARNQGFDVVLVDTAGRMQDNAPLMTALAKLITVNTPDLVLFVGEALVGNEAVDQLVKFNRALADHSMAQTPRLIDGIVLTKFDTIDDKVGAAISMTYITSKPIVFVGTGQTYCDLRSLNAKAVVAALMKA
Sequence of UniProt Q9Y265 (Q9Y265 whole entry): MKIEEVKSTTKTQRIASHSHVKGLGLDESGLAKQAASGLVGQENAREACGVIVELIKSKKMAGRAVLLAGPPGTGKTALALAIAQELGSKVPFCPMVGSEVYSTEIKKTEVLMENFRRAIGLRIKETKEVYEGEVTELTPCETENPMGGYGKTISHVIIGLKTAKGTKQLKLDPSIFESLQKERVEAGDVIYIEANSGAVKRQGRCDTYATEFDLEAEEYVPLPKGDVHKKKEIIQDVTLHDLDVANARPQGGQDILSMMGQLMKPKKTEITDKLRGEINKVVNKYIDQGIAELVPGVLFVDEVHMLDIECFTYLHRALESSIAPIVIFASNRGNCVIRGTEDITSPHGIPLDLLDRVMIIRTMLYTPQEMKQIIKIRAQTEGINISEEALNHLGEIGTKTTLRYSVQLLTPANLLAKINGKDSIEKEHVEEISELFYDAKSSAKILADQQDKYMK
Sequence of UniProt Q92930 (Q92930 whole entry): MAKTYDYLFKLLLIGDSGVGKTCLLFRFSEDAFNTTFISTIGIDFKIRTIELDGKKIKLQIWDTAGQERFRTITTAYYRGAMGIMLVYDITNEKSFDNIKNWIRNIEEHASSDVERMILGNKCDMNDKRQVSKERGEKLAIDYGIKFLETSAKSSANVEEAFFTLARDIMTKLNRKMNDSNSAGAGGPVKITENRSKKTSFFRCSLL
Sequence of UniProt Q969Z0 (Q969Z0 whole entry): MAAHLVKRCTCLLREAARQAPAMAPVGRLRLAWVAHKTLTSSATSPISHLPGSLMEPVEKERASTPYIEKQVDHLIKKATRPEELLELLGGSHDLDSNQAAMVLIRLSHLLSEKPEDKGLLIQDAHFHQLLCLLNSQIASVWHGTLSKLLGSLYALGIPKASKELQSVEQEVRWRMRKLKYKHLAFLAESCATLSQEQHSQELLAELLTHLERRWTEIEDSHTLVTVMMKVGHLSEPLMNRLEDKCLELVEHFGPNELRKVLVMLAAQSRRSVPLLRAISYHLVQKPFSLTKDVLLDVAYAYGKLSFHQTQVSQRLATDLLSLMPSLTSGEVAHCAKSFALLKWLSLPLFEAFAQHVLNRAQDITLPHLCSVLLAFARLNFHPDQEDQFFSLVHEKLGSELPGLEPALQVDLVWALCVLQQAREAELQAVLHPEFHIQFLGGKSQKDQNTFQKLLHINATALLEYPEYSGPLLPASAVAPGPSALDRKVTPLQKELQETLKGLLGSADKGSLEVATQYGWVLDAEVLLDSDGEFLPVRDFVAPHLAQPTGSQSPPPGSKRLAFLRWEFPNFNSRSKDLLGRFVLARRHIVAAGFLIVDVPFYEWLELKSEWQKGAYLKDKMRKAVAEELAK
Sequence of UniProt Q15382 (Q15382 whole entry): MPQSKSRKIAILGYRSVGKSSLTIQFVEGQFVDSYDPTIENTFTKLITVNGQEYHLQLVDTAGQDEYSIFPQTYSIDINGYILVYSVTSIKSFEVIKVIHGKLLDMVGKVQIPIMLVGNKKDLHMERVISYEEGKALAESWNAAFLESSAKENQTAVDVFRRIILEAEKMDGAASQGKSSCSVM
Sequence of UniProt Q5HYI8 (Q5HYI8 whole entry): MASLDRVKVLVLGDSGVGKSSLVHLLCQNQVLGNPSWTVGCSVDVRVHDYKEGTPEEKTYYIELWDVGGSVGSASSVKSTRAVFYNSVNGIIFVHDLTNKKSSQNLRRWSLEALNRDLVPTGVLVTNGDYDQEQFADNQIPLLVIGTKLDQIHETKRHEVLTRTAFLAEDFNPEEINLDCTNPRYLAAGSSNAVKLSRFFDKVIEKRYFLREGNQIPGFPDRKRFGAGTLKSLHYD
Sequence of UniProt O00442 (O00442 whole entry): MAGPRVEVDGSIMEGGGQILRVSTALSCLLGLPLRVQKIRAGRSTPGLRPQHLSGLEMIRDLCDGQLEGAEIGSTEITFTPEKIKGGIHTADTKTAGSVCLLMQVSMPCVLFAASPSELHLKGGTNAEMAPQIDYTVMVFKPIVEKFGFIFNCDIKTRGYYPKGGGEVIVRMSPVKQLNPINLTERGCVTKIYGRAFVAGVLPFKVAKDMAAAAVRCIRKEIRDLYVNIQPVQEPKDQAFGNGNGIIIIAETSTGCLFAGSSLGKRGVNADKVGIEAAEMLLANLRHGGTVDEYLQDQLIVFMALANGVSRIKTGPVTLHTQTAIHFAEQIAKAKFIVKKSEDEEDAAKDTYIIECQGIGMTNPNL
Sequence of UniProt Q86YS6 (Q86YS6 whole entry): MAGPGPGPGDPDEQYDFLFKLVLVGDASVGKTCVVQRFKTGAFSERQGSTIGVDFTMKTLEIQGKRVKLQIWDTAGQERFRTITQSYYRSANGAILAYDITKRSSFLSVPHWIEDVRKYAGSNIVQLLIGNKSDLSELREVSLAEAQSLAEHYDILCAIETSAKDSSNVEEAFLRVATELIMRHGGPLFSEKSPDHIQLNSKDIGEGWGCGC
Sequence of UniProt P53597 (P53597 whole entry): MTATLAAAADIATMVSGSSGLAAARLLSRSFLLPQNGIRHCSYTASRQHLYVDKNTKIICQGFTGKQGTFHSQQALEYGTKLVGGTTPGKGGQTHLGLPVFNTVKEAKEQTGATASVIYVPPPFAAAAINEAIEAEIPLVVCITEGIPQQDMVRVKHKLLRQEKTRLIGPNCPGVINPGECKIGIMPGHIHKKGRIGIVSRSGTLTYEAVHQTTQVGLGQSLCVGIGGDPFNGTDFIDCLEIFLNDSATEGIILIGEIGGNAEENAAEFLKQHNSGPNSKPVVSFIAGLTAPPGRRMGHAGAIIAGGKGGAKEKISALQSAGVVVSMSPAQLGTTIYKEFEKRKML

Regarding “RAB8B (effect direction: stabilized) (UniProt Q92930)”, the pEC50 in assay [1] came to 3.93; in assay [2], 4.27.
On the same counts, the results for “RAB21 (effect direction: stabilized) (UniProt Q9UL25)” are 3.75 and 4.53.
Turning to “RAB33A (effect direction: stabilized) (UniProt Q14088)”, the negative logarithm of the EC50 (pEC50) is 3.39 in assay [1] and 3.89 in assay [2].
On the same counts, the results for “RAB39B (effect direction: stabilized) (UniProt Q96DA2)” are 3.52 and 4.03.
As to “RAB43 (effect direction: stabilized) (UniProt Q86YS6)”, the pEC50 in assay [1] was 3.55; in assay [2], 4.47.
In the same order, the values of “RABL3 (effect direction: stabilized) (UniProt Q5HYI8)” are 3.4 and 3.95.
Take “RAD50 (effect direction: stabilized) (UniProt Q92878)”: the pEC50 in assay [1] stood at 3.37; in assay [2], 3.49.
“RHEB (effect direction: stabilized) (UniProt Q15382)”: the negative-log EC50 (pEC50) worked out at 3.28 in assay [1] and 4.45 in assay [2].
As to “RHOA (effect direction: stabilized) (UniProt P61586)”, the pEC50 in assay [1] was 4.15; in assay [2], 4.45.
In the same order, the values of “RUVBL1 (effect direction: stabilized) (UniProt Q9Y265)” are 4.34 and 3.67.
In the same order, the values of “RUVBL2 (effect direction: stabilized) (UniProt Q9Y230)” are 4.33 and 3.77.
On the same counts, the results for “SET (effect direction: stabilized) (UniProt Q01105)” are 3.06 and 3.71.
For the target “SUCLA2 (effect direction: stabilized) (UniProt Q9P2R7)”, the results for the pEC50 in assay [1] and in assay [2] were 3.2 and 3.78, respectively.
In the same order, the values of “SUCLG1 (effect direction: stabilized) (UniProt P53597)” are 3.48 and 3.83.
In the same order, the values of “SUCLG2 (effect direction: stabilized) (UniProt Q96I99)” are 3.43 and 3.5.
On the same counts, the results for “TBCD (effect direction: stabilized) (UniProt Q9BTW9)” are 2.92 and 3.7.
On to “TBRG4 (effect direction: stabilized) (UniProt Q969Z0)”, for which the values for the pEC50 in assay [1] and in assay [2] were 3.26 and 3.48, respectively.
In the same order, the values of “THUMPD1 (effect direction: stabilized) (UniProt Q9NXG2)” are 3.08 and 3.86.
In the same order, the values of “TNPO1 (effect direction: stabilized) (UniProt Q92973)” are 2.89 and 3.68.
In the same order, the values of “TNPO2 (effect direction: stabilized) (UniProt O14787)” are below 2.7 and below 3.3.
Regarding “TNPO3 (effect direction: stabilized) (UniProt Q9Y5L0)”, the negative logarithm of the EC50 (pEC50) in assay [1] worked out at 3.08; in assay [2] it was 3.76.
In the same order, the values of “TP53RK (effect direction: stabilized) (UniProt Q96S44)” are 3.46 and 3.58.
On the same counts, the results for “TUBG1 (effect direction: stabilized) (UniProt P23258)” are 3.17 and 4.06.
On to “UAP1L1 (effect direction: stabilized) (UniProt Q3KQV9)”, for which the pEC50 in assay [1] is 3.13; in assay [2], 3.38.
For the target “UBA1 (effect direction: stabilized) (UniProt P22314)”, the pEC50 in assay [1] amounted to 4.18; in assay [2] it was 3.79.
In the same order, the values of “UCK2 (effect direction: stabilized) (UniProt Q9BZX2)” are 3.28 and 3.9.
In the same order, the values of “UniProt O00442 (effect direction: stabilized)” are 4.08 and 4.08.
On the same counts, the results for “UniProt O43776 (effect direction: stabilized)” are 4.13 and 4.05.
As for “UniProt O75323 (effect direction: stabilized)”, the pEC50 in assay [1] was 3.94; in assay [2], 3.66.
“UniProt P07437 (effect direction: stabilized)”: the negative logarithm of the EC50 (pEC50) in assay [1] was 3.35; in assay [2] it was 4.05.
In the same order, the values of “UniProt P08240 (effect direction: stabilized)” are 4.01 and 3.81.
In the same order, the values of “UniProt P17252 (effect direction: stabilized)” are 4.25 and 4.06.
On the same counts, the results for “UniProt P17612 (effect direction: stabilized)” are 3.82 and 3.72.
As for “UniProt P19784 (effect direction: stabilized)”, the pEC50 in assay [1] amounted to 4.12; in assay [2], 3.92.
As to “UniProt P36542 (effect direction: stabilized)”, the pEC50 was 4.25 in assay [1] and 4.12 in assay [2].
On the same counts, the results for “UniProt P45985 (effect direction: stabilized)” are 3.79 and 3.78.
Take “UniProt P48047 (effect direction: stabilized)”: the results for the pEC50 in assay [1] and in assay [2] were 3.53 and 3.9, respectively.
In the same order, the values of “UniProt P52564 (effect direction: stabilized)” are 4 and 3.9.
In the same order, the values of “UniProt P59998 (effect direction: stabilized)” are 3.9 and 4.03.
On the same counts, the results for “UniProt P61026 (effect direction: stabilized)” are 3.83 and 4.35.
For “UniProt P61086 (effect direction: stabilized)”, the pEC50 in assay [1] is 4.05; in assay [2] it was 3.76.
In the same order, the values of “UniProt P61106 (effect direction: stabilized)” are 3.66 and 4.33.
In the same order, the values of “UniProt P61160 (effect direction: stabilized)” are 4.25 and 3.99.
In the same order, the values of “UniProt P61224 (effect direction: stabilized)” are 3.9 and 4.25.
“UniProt P61225 (effect direction: stabilized)”: the pEC50 in assay [1] is 3.48; in assay [2] it was 4.05.
With “UniProt P62070 (effect direction: stabilized)”, the negative logarithm of the EC50 (pEC50) amounted to 3.42 in assay [1] and 4.08 in assay [2].
On the same counts, the results for “UniProt P62333 (effect direction: stabilized)” are 4.38 and 3.75.
On the same counts, the results for “UniProt P62820 (effect direction: stabilized)” are 3.74 and 4.31.
Consider “UniProt P68363 (effect direction: stabilized)”, for which the pEC50 is 2.98 in assay [1] and 3.88 in assay [2].
On the same counts, the results for “UniProt Q6XQN6 (effect direction: stabilized)” are 4.21 and 3.93.
On the same counts, the results for “UniProt Q9BW83 (effect direction: stabilized)” are 3.12 and 3.96.
On the same counts, the results for “UniProt Q712K3 (effect direction: stabilized)” are 4.18 and 3.86.
Turning to “UniProt Q01130 (effect direction: stabilized)”, the values for the pEC50 in assay [1] and in assay [2] were 3.23 and 3.56, respectively.
For the target “UniProt Q15286 (effect direction: stabilized)”, the pEC50 stood at 3.53 in assay [1] and 4.35 in assay [2].
In the same order, the values of “UniProt Q16512 (effect direction: stabilized)” are 3.69 and 4.22.
Consider “VARS (effect direction: stabilized) (UniProt P26640)”, for which the pEC50 worked out at 3.57 in assay [1] and 3.79 in assay [2].
Turning to “VPS4B (effect direction: stabilized) (UniProt O75351)”, the results for the pEC50 in assay [1] and in assay [2] were 4.33 and 3.92, respectively.
